Laboratory results: publication PMC4442108, “Preclinical Validation of the Heparin-Reactive Peptide p5+14 as a Molecular Imaging Agent for Visceral Amyloidosis” (Molecules, 2015)
Where no end group is shown, it is not given here. [ ]: non-standard residue; d: D form. Tyr(3-I) = N[C@@H](Cc1ccc(O)c(I)c1)C(=O)O

Columns and labels:
[1] = system: human AL amyloid extracts; assay: Peptide ex vivo amyloid binding assay (pull-down), AL extracts; details: for % Bound (mean ± SD): 1 h incubation, PBST, RT, N = 2
Description: Human amyloid tissue extracts were prepared using the water flotation method as described by Pras et al. without modification. Purified amyloid material isolated in the water wash was collected and lyophilized before use.
(§1) Twenty-five microliters of 1 mg/mL AL extract, or synthetic rVλ6Wil variable domain fibrils were centrifuged in a 0.5 mL microfuge tube at 21,000× g for 5 min. The supernatant was discarded and pellet resuspended in 200 µL of PBS with 0.05% Tween-20 (PBST). Ten microliters of a 1:100 dilution of ^125I-p5+14 (~100,000 counts per minute (CPM); ~5 ng peptide) stock was added to the suspension. The mixture was rotated at RT for 1 h. Samples were then centrifuged twice at 15,000× g for 10 min. Supernatants and pellets were separated after each step and the radioactivity in each was measured using a Cobra II gamma counter (Perkin Elmer) with a 1 min acquisition. The percentage of ^125I-p5+14 bound to pellet was determined as follows: % Bound = Pellet CPM/(Pellet CPM + Supernatant CPM) × 100

[2] = target: T1, human ATTR amyloid extract (Homo sapiens, UniProt P02766); assay: Peptide ex vivo amyloid binding assay (pull-down), ATTR extract; details: ATTR heart extract; ~5 ng 125I-p5+14, 25 µL of 1 mg/mL extract, PBST, 1 h RT, pellet vs supernatant CPM; N = 2
T1 construct: as well as one cardiac ATTR extract, were analyzed in this assay; from tissue; host or cells: human heart, water flotation extract

[3] = system: synthetic rVλ6Wil fibrils; type: binding, human; details: HSPG-free synthetic rVλ6Wil fibrils in suspension; PBST; 1 h RT; 125I-p5+14 ~5 ng
Description: as §1

[4] = system: human AL and ATTR amyloid in tissue sections; assay: Peptide histochemistry and overlay micro-autoradiography on human tissue sections; type: binding; details: ~5 ng/mL, 1 h room temperature; FFPE human AL and ATTR sections
Description: For autoradiography, 6- μm-thick sections were cut from formalin-fixed, paraffin-embedded blocks, containing tissues from mice that had received ^125I-p5+14. Mice were euthanized at 1 h pi of radiotracer. The sections were placed on Plus microscope slides (ThermoFisher Scientific, Waltham, MA, USA), dipped in NTB-2 emulsion (Eastman Kodak, Rochester, NY, USA), stored in the dark and developed after a 4 day exposure. Each section was counterstained with hematoxylin and eosin. […] Blinded qualitative assessment of amyloid load in Congo red-stained sections of liver and spleen was performed by an experienced amyloid researcher who ranked each tissue on a 0 to 4+ scale. All tissue sections were examined using a Leica DM500 light microscope (Leica, Wetzlar, Germany) fitted with cross-polarizing filters (for Congo red). Digital microscopic images were acquired using a cooled CCD camera (SPOT; Diagnostic Instruments, Sterling Heights, MI, USA).
Peptide p5+14 (with a cysteine residue at the N-terminal) was prepared for tissue staining by either biotinylation, according to the manufacturer’s instructions, using a maleimide-biotin conjugation kit (Pierce, Grand Island, NY, USA), or for overlay-micoautoradiography by radioiodination with ^125I, as described above. […]

[5] = system: healthy tissue homogenates; assay: Peptide ex vivo binding assay, non-specific binding; details: data not shown

GGG[Tyr(3-I)]SKAQKAQAKQAKQAQKAQKAQAKQAKQAQKAQKAQAKQAKQ [125I-p5+14]
median % bound amongst the test samples ([1]; across the human AL and ATTR amyloid extracts of Table 3): 92% | % Bound (mean ± SD) ([1]; κ1 AL08 liver extract): 96.35 ± 0.47% | % Bound (mean ± SD) ([1]; κ4 AL01 spleen extract): 97.00 ± 0.11% | % Bound (mean ± SD) ([1]; λ1 AL03 liver extract): 91.16 ± 0.87% | % Bound (mean ± SD) ([1]; λ1 AL07 liver extract): 51.81 ± 0.25% | % Bound (mean ± SD) ([1]; λ2 AL02 liver extract): 92.95 ± 0.31% | % Bound (mean ± SD) ([1]; λ2 AL02 spleen extract): 96.76 ± 3.65% | % Bound (mean ± SD) ([1]; λ2 AL06 liver extract): 89.66 ± 0.91% | % Bound (mean ± SD) ([1]; λ2 AL06 spleen extract): 97.11 ± 0.05% | % Bound (mean ± SD) ([1]; λ2 AL09 liver extract): 84.99 ± 0.14% | % Bound (mean ± SD) ([1]; λ3 AL04 liver extract): 88.44 ± 0.25% | % Bound (mean ± SD) ([1]; λ3 AL04 spleen extract): 92.29 ± 0.30% | % Bound (mean ± SD) ([1]; λ4 AL05 spleen extract): 95.44 ± 0.03% | % Bound (mean ± SD) [2]: 79.93 ± 1.23% | % bound [3]: 95.7% | overlay micro-autoradiography on human tissue sections [4]: co-localized with both AL and ATTR amyloid | non-specific binding [5]: ~ 10%
